Reference: paper PMC10011588, “Conformational transitions and allosteric modulation in a heteromeric glycine receptor” (Nature Communications, 2023)

Experiments:
[1] = target: T1, α1βB glycine receptor (ZF-α1GlyR subunit) (Danio rerio, UniProt O93430+Q6DC22); parameters: gene glra1
T1 sequence (O93430 25-444): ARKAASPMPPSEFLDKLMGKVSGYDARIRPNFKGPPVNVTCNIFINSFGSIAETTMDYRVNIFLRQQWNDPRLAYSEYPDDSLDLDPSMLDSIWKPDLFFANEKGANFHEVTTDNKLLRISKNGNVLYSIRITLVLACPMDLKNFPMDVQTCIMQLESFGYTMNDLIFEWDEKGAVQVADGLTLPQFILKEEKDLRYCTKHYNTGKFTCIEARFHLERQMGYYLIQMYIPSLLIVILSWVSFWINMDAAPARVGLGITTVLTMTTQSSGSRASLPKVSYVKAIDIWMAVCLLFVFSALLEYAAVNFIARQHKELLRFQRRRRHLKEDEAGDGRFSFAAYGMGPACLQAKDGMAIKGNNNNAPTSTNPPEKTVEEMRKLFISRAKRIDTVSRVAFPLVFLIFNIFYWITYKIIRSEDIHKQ
T1 sequence (Q6DC22 23-494): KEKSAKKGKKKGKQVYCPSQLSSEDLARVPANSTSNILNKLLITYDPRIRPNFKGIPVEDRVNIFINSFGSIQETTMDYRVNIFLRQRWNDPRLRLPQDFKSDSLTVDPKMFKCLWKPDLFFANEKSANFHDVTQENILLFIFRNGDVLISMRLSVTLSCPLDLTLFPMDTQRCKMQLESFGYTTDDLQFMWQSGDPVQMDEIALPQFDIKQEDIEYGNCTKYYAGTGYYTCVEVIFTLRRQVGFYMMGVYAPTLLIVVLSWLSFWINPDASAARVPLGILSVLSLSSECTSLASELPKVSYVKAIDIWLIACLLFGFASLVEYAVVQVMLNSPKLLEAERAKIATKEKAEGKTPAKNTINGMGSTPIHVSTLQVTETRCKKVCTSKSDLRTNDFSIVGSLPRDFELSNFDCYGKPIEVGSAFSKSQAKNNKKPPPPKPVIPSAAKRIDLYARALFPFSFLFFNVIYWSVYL

[2] = target: T1, α1βB glycine receptor (ZF-α1GlyR subunit); experiment: cryo-EM structure, […] Å ([…] glycine); EC50 from whole-cell currents in HEK […] T cells (homomeric α[…]); format: cell-based; parameters: gene glra1; full-length α1GlyR (NP_571477.1) with C-terminal thrombin site and 8xHis tag, 4α:1β heteropentamer; with βBGlyR (glrbb, NP_001003587.1); rat gephyrin E domain co-purified (not resolved)
Source text: The carboxyl oxygens form hydrogen bonds with αS153 (βS173) on Loop E

[3] = target: T2, zebrafish glycine receptor βB subunit (ZF-βBGlyR), full length (zebrafish, UniProt Q6DC22 1-494, N-glycans at N54 and N241); experiment: cryo-EM structure; αβGlyR-Geph-E sample co-expressed in Sf9 and co-purified in DDM, vitrified on graphene-oxide grids with 100 µM strychnine, 1 mM glycine, or 1 mM glycine and 20 µM ivermectin; no fiduciary marker; conditions: partners not purified
T2 construct: glycine receptor βB subunit, zebrafish, NCBI NP_001003587.1, codon-optimised full-length gene; One copy stands in the αβGlyR heteropentamer (4α:1β); also called βGlyR; GlyRβB; source: Sf9 (ExpiSf9) cells, baculovirus (pFastBacDual, polyhedrin promoter), co-expressed with α1GlyR and Geph-E
T2 sequence (looked up): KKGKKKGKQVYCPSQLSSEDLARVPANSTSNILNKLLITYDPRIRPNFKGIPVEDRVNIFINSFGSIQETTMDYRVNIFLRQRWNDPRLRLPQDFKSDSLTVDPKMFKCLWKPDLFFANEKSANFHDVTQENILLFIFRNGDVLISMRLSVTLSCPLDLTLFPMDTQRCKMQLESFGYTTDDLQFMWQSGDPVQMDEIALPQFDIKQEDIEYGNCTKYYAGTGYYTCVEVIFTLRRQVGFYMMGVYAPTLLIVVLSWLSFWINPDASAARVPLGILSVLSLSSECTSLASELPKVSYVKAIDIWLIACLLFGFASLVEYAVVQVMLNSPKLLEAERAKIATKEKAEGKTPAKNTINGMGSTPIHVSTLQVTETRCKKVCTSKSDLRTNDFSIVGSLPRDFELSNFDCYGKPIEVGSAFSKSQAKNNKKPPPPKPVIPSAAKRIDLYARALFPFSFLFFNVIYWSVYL

With `O=C1C[C@@H]2OCC=C3CN4CC[C@]56c7ccccc7N1[C@H]5[C@H]2[C@H]3C[C@H]46` [strychnine] the “cryo-EM structure, 2.97 Å (100 μM strychnine)” value [1] was “Strychnine density is well-defined in αβGlyR-Stry and is essentially in the same orientation across all five subunits”.

For `NCC(=O)O` [glycine], the EC50 [2] was 63 ± 13 µM.

B1: zebrafish glycine receptor α1 subunit (ZF-α1GlyR), full length (receptor, UniProt O93430 25-444, looked up)
chain: ARKAASPMPPSEFLDKLMGKVSGYDARIRPNFKGPPVNVTCNIFINSFGSIAETTMDYRVNIFLRQQWNDPRLAYSEYPDDSLDLDPSMLDSIWKPDLFFANEKGANFHEVTTDNKLLRISKNGNVLYSIRITLVLACPMDLKNFPMDVQTCIMQLESFGYTMNDLIFEWDEKGAVQVADGLTLPQFILKEEKDLRYCTKHYNTGKFTCIEARFHLERQMGYYLIQMYIPSLLIVILSWVSFWINMDAAPARVGLGITTVLTMTTQSSGSRASLPKVSYVKAIDIWMAVCLLFVFSALLEYAAVNFIARQHKELLRFQRRRRHLKEDEAGDGRFSFAAYGMGPACLQAKDGMAIKGNNNNAPTSTNPPEKTVEEMRKLFISRAKRIDTVSRVAFPLVFLIFNIFYWITYKIIRSEDIHKQ
modifications: N-glycan at N62
notes: glycine receptor α1 subunit, zebrafish, NCBI NP_571477.1, codon-optimised full-length gene; Four copies stand in the αβGlyR heteropentamer (4α:1β); The full-length gene was expressed; also called αGlyR; GlyRα1; source: Sf9 (ExpiSf9) cells, baculovirus (pFastBacDual, p10 promoter), co-expressed with βBGlyR and Geph-E; not shown: 8x His (after a thrombin site LVPRGS), C-terminal, kept
For B1, the “stoichiometry N” value [3] was 4 α per β.
